Tests used:
[1] = anti-oxidation activity in a lipid oxidation process promoted by a metal ion (copper sulfate); details: 5 μM copper sulfate added; lesser ratio = stronger
Experimental: The anti-oxidation activities was evaluated according to the method by A. Ben Aziz et al. (see Phytochemistry, 10, 1445, 1971). That is to say, an emulsion of linoleic acid and β-carotene was first prepared with Tween 20 (Sigma) and adjusted to pH 7.0 with 0.1 M trishydroxyaminomethane-hydrochloride. To the emulsion was added 0.0005% of a substance to be tested, and the mixture was reacted at 25° C.
During the reaction, the color degradation of β-carotene in association with the autoxidation of linoleic acid was measured with the passage of time as the decreased value of the optical density at 460 nm with a spectrophotometer.
The substance to be tested was a garcinal preparation obtained in Referential Example 1, and vitamin E and (+)-catechin were used as Comparative Example. The antioxidant activity was measured as a ratio of the decreasing rate of absorbance in the presence of the substance to be tested to the decreasing rate of absorbance in the absence of the antioxidant. That is, the substance is judged to have an antioxidant activity when the ratio is less than 1, and thus it is predicated that the lesser the ratio, the stronger the antioxidant activity.
The oxidation process of linoleic acid in Experimental Example 1 is promoted by a metal ion. If 5 μM of copper sulfate is added to the reaction system, the color-degradation rate of β-carotene is promoted by about 30%. When garcinol was added to this system, the ratio of the decreasing rate of absorbance was 0.57. In this connection, it was 0.13 for vitamin E and 0.84 for (+)-catechin.

[2] = anti-oxidation activity (linoleic acid/β-carotene emulsion, autoxidation); details: 0.0005% test substance, pH 7.0, 25° C., 460 nm; lesser ratio = stronger
Experimental: The anti-oxidation activities was evaluated according to the method by A. Ben Aziz et al. […] That is to say, an emulsion of linoleic acid and β-carotene was first prepared with Tween 20 (Sigma) and adjusted to pH 7.0 with 0.1 M trishydroxyaminomethane-hydrochloride. […] During the reaction, the color degradation of β-carotene in association with the autoxidation of linoleic acid was measured with the passage of time as the decreased value of the optical density at 460 nm with a spectrophotometer. […] The antioxidant activity was measured as a ratio of the decreasing rate of absorbance in the presence of the substance to be tested to the decreasing rate of absorbance in the absence of the antioxidant.

[3] = tested on: bovine serum albumin; assay: suppression of generation of reactive oxygen species in the presence of metal ion (oxidation of bovine serum albumin in Fenton reaction); format: biochemical; details: 1 mM test substance, 10 μM copper ion, 20 mM hydrogen peroxide, 4 mg/ml BSA
Experimental: The activity for suppressing the generation of reactive oxygen species in the presence of metal ion was evaluated by measuring the effect for suppressing the oxidation of bovine serum albumin by hydroxyl radical in the Fenton reaction system. That is to say, hydroxyl radical was first produced by divalent copper ion and hydrogen peroxide (Fenton reaction). Bovine serum albumin was oxidized by the hydroxyl radical, and thus carbonyl was produced. The carbonyl was reacted with 2,4-dinitrophenylhydrazine, and determined by measuring the absorbance at 365 nm. […] The ratio of decreases of absorbance was expressed as the activity for suppressing the generation of reactive oxygen species in the presence of metal ion.

[4] = tested on: gastric ulcer; assay: anti-ulcer test against stress ulcer (restrained immersion into water); format: in vivo, Wistar/ST male rats; details: 200 mg/kg oral
Experimental: Gastric ulcer was induced in Wistar/ST male rats having a weight of about 200 g (6 w) by the stress of restrained immersion into water and the anti-ulcer effects of the test samples were examined in the following groups to which test samples were administered.
Each group comprises six rats.
Group 1: (control) physiological saline
Group 2: (comparative) cetraxate hydrochloride 200 mg/kg
Group 3: (the present invention) garcinol 200 mg/kg
In this connection, the test samples in the control, comparative group and the present invention group were prepared in the same manner as in Experimental Example 9.
Rats having fasted for 24 hours were locked up in a restrained dipping cage after 30 minutes from the oral administration of respective test samples. Next, rats were stressed by dipping the cage into water at 23° C. for 7 hours, and bleeded to death under anesthetization with nembutal, and stomach was isolated. A phosphate buffer (10 ml) containing 10% formalin was injected into the stomach, which was cut open after 10 minutes, and the length of lesion caused in the glandular stomach portion was defined as the lesion index, which was measured in the mm unit to evaluate the anti-ulcer effect.
The method for calculating the suppression rate (%) and the meaning of it has been described in Experimental Example 9.

## C=C(C)[C@@H](CC=C(C)C)C[C@@]12C[C@@H](CC=C(C)C)C(C)(C)[C@@](CC=C(C)C)(C(=O)C(C(=O)c3ccc(O)c(O)c3)=C1O)C2=O [garcinol]
[1]
  ratio of the decreasing rate of absorbance (antioxidant activity with metal ion): 0.57
[2]
  antioxidant activity (ratio of the decreasing rate of absorbance with to without test substance): 0.50
[3]
  ratio for suppressing the oxidation of bovine serum albumin: 55%
[4]; restrained water immersion 23° C., 7 hours, control 44.20 ± 18.10
  Length of ulcer: 17.60 ± 9.96 mm
[4]; stress ulcer, vs. control
  Suppression rate: 60.2%

From patent US5972357A, “Healthy foods and cosmetics” (Kikkoman Corporation, priority 1996, dated 1999)
